These results are taken from patent US20250084097A1, “MACROCYCLIC AMIDE COMPOUNDS AND APPLICATION THEREOF” (Medshine Discovery Inc., priority 2021, published 2025).

Each structure is given as a SMILES string.

Assay in all cases: Cytochrome P450 isoenzyme inhibition, human liver microsomes
What all share (assay type): in vitro ADME
A general note: Liver microsomes are a subcellular fraction often used to study metabolism.

One test addresses T1, CYP2C9 (Homo sapiens, UniProt P11712).
T1 construct: from tissue; host or cells: human liver microsomes
The settings on record: read-out: Cytochrome P450 isoenzyme inhibitory concentration CYP2C9. How it is done:
(§1) The purpose of this study was to determine the inhibitory effect of test compounds on the activity of human liver microsomal cytochrome P450 isoenzymes (CYP1A2, CYP2C9, CYP2C19, CYP2D6 and CYP3A4).
(§2) Working solutions (100×final concentration) with concentrations of 5.00, 1.50, 0.500, 0.150, 0.0500, 0.0150, and 0.00500 mM were prepared by gradient dilution of the test compound (10.0 mM), while working solutions of each positive inhibitor and its specific substrate mixtures of P450 isozymes (CYP1A2, CYP2C9, CYP2C19, CYP2D6, and CYP3A4) were prepared; human liver microsomes stored in a refrigerator below −60° C. were thawed on ice; after all the human liver microsomes were thawed, the human liver microsomes were diluted with Potassium phosphate buffer (PB) to prepare a certain concentration of working solution (0.253 mg/ml).
(§3) First, 20.0 μL of the substrate mixture was added to a reaction plate (20.0 μL of PB was added to the Blank well), then 158 μL of human liver microsomal working solution was added to the reaction plate, and the reaction plate was placed on ice for use; at this time, 2.00 μL of each concentration of the test compound (N=1) and specific inhibitor (N=2) were added to the corresponding wells, and to the group without inhibitor (test compound or positive inhibitor) was added the corresponding organic solvent as control samples (1:1 DMSO:MeOH for the control sample of the test compound, and 1:9 DMSO:MeOH for all the positive control samples); after pre-incubation in a water bath at 37° C. for 10 min, 20.0 μL of cofactor (NADPH) solution was added to the reaction plate, and the reaction plate was incubated in a water bath at 37° C. for 10 min; The reaction was terminated by adding 400 μL of pre-cooled acetonitrile solution (containing 200 ng/mL Tolbutamide and Labetalol internal standard); the reaction plate was shaken on a shaker for 10 min; then centrifuged at 4000 rpm at 4° C. for 20 min; 200 μL of the supernatant was added to 100 μL of water to dilute the samples; and the plate was sealed, shaken for 10 min to mix well, and then analyzed by LC/MS/MS.
(§4) The rate of production of metabolites of each probe substrate was used to reflect the activity of each CYP isozyme. The activity of each isozyme in the solvent control incubation system without test article or positive inhibitor was set to be 100%, and the rate of production of metabolites of the probe substrate with different concentrations of test article or positive inhibitor was divided by the rate of production of metabolites of the solvent control samples, and then multiplied by 100% as the percentage of residual activity of each isozyme. The IC50 values of the test article and each positive inhibitor were calculated by nonlinear regression analysis using three or four parameters in XL fit software with the percentage of residual activity as the vertical coordinate and the inhibitor concentration as the horizontal coordinate. The IC50 values were labeled as “>50 μM” when the IC50 fitted by XL fit software was greater than the highest administered concentration (50 μM) or when the IC50 could not be fitted.

For the next test, the target named is T2, CYP2D6 (Homo sapiens, UniProt P10635).
T2 construct: from tissue; host or cells: human liver microsomes
T2 sequence (P10635 whole entry): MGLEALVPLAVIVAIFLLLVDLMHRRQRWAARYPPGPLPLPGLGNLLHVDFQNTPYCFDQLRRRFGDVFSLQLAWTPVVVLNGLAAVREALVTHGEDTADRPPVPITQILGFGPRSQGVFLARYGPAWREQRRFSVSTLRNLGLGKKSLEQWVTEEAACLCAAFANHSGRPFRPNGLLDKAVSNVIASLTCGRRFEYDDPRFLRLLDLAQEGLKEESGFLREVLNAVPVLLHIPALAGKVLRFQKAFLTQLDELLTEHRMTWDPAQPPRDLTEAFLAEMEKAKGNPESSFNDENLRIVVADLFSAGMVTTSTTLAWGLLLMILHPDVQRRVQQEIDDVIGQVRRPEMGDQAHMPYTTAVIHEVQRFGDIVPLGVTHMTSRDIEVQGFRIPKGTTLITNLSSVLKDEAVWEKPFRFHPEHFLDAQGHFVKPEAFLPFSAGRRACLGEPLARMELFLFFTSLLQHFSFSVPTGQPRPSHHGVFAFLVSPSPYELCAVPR
The settings on record: read-out: Cytochrome P450 isoenzyme inhibitory concentration CYP2D6. How it is done:
as §1, §2, §3, §4

Another test deals with T3, CYP1A2 (Homo sapiens, UniProt P05177).
T3 construct: from tissue; host or cells: human liver microsomes
T3 sequence (P05177 whole entry): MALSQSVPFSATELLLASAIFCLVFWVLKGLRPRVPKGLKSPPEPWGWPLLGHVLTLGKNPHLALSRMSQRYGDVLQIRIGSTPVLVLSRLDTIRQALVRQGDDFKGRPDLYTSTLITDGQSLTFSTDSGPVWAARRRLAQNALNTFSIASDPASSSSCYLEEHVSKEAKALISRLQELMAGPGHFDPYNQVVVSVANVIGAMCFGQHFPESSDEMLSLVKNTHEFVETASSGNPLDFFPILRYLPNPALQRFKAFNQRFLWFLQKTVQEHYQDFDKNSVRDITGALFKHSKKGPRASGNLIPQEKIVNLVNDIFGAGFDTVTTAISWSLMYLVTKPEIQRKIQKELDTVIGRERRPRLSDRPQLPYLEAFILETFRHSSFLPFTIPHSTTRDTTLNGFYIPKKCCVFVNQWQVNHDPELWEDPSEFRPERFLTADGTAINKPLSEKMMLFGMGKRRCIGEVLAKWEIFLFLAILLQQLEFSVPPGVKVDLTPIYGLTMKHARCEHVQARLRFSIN
The settings on record: read-out: Cytochrome P450 isoenzyme inhibitory concentration CYP1A2. How it is done:
as §1, §2, §3, §4

In a further test the target is T4, CYP3A4 (Homo sapiens, UniProt P08684).
T4 construct: from tissue; host or cells: human liver microsomes
T4 sequence (P08684 whole entry): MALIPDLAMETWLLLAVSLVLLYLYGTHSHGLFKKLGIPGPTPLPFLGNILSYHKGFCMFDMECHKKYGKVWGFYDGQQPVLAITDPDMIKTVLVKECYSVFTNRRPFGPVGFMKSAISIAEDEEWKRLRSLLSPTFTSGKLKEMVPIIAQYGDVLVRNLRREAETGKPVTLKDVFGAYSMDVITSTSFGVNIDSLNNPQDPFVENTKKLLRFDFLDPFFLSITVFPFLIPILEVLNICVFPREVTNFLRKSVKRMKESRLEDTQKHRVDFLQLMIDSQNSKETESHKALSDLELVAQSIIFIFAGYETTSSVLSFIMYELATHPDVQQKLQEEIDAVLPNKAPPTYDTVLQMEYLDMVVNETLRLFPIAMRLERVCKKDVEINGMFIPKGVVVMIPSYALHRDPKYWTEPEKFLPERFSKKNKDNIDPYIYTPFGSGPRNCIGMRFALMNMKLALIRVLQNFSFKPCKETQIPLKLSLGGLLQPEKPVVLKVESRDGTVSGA
The settings on record: read-out: Cytochrome P450 isoenzyme inhibitory concentration CYP3A4. On the procedure:
as §1, §2, §3, §4

For the next test, the target named is T5, CYP2C19 (Homo sapiens, UniProt P33261).
T5 construct: from tissue; host or cells: human liver microsomes
T5 sequence (P33261 whole entry): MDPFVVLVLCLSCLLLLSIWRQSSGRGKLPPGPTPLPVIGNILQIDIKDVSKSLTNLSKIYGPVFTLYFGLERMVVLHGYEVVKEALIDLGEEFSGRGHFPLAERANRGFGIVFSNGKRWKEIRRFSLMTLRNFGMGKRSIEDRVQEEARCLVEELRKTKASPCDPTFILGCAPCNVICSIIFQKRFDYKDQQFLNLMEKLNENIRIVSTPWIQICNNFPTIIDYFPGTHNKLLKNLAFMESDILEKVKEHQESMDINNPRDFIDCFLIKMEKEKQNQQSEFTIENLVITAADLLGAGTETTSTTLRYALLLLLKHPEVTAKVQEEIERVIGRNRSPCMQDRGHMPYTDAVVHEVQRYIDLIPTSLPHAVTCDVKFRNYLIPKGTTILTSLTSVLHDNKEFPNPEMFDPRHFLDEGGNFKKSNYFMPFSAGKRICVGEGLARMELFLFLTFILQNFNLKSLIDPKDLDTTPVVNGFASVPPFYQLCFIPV
The settings on record: read-out: Cytochrome P450 isoenzyme inhibitory concentration CYP2C19. On the procedure: as §1, §2, §3, §4

T1 sequence (P11712 whole entry): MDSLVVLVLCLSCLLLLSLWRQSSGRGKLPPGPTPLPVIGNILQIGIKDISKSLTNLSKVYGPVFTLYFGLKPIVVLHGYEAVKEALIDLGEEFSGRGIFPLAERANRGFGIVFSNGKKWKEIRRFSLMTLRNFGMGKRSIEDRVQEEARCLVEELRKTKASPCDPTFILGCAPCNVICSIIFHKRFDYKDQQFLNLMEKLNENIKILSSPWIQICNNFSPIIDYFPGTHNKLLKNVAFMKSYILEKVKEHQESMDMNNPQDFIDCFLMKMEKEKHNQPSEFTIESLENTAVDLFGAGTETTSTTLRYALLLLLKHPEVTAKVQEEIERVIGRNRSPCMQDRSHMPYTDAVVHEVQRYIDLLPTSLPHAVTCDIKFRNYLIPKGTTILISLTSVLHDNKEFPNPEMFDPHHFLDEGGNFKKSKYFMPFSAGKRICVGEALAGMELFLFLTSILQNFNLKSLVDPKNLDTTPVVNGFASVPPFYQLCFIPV

In the case of `Cc1cc2cc(n1)-c1cnn(C)c1OCCC[C@@H](C)CN1/C(=N/C2=O)Nc2ccc(N=S(C)(C)=O)c(Cl)c21` [WX-019], the IC50 is 31 µM at CYP2C9; more than 50 µM at CYP2D6; more than 50 µM at CYP1A2; more than 50 µM on CYP3A4; 3.4 µM on CYP2C19.
As for `Cc1cc2cc(n1)-c1cnn(C)c1OC[C@H]1CC[C@H](C1)CN1/C(=N/C2=O)Nc2ccc(N=S(C)(C)=O)cc21` (single isomer, unassigned) [WX-027A], the IC50 at CYP2C9 was 14 µM; at CYP2D6 it was more than 50 µM; at CYP1A2 it was more than 50 µM; at CYP3A4, 20 µM; at CYP2C19, 9.8 µM.
